# Reference: US9382197B2, “Substituted hydroxamic acids and uses thereof” (Millennium Pharmaceuticals, Inc., priority 2010, dated 2016)
# Biological target: T1, purified human HDAC6 (Homo sapiens, UniProt Q9UBN7)
# T1 construct: purchased BPS Bioscience 5006
# T1 sequence (Q9UBN7 1-1215): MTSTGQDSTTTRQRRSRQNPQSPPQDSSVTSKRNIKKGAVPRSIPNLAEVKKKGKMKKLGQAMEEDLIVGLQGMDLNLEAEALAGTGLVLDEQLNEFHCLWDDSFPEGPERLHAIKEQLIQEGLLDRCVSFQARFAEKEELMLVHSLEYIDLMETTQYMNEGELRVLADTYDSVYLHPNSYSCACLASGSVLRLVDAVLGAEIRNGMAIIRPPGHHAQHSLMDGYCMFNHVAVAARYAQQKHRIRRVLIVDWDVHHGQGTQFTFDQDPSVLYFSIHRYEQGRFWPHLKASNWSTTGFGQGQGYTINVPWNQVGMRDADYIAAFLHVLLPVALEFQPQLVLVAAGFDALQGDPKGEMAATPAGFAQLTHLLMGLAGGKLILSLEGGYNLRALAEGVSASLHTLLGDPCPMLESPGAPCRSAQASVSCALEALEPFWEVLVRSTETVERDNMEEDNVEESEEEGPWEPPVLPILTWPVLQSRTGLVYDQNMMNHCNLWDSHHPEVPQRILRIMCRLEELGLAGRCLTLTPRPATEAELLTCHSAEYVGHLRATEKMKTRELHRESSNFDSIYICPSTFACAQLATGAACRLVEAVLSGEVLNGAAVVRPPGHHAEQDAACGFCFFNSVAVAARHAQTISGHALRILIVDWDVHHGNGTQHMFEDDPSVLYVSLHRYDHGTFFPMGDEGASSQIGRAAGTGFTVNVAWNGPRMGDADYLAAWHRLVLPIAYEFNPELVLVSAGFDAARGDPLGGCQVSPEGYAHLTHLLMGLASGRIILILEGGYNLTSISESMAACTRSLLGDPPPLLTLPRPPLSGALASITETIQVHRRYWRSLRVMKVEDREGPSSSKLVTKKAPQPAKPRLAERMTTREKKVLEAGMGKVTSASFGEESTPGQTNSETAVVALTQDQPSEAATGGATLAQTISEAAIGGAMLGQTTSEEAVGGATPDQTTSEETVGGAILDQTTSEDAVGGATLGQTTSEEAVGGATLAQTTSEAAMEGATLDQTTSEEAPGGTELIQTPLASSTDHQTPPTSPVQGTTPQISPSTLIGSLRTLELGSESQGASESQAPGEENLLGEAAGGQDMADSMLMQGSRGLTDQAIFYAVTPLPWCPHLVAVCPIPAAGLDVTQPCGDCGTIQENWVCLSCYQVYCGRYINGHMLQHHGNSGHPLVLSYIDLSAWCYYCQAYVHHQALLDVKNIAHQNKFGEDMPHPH
# Test: HDAC6 Enzyme Assay
# Assay type: biochemical
# Details: bin: greater than 500 nM and less than 1 μM (lower bound in nM, upper bound in μM)
# Protocol: To measure the inhibition of HDAC6 activity, purified human HDAC6 (BPS Bioscience; Cat. No. 5006) is incubated with substrate Ac-Arg-Gly-Lys(Ac)-AMC peptide (Bachem Biosciences; Cat. No. 1-1925) for 1 hour at 30° C. in the presence of test compounds or vehicle DMSO control. The reaction is stopped with the HDAC inhibitor trichostatin A (Sigma; Cat. No. T8552) and the amount of Arg-Gly-Lys-AMC generated is quantitated by digestion with trypsin (Sigma; Cat. No. T1426) and subsequent measurement of the amount of AMC released using a fluorescent plate reader (Pherastar; BMG Technologies) set at Ex 340 nm and Em 460 nm. Concentration response curves are generated by calculating the fluorescence increase in test compound-treated samples relative to DMSO-treated controls, and enzyme inhibition (IC50) values are determined from those curves.
row,IC50,Compound
1,500 to 1000 nM,"CC(C)C(NC(=O)Cc1cccc(C(F)(F)F)c1)c1ccc(C(=O)NO)cc1 (stereo not shown) [Compound I-195, N-hydroxy-4-[2-methyl-1-({[3-(trifluoromethyl)phenyl]acetyl}amino)propyl]benzamide]"
2,500 to 1000 nM,"CC(C)(C)C(NC(=O)C1(c2ccc(Cl)cc2)CC1)c1ccc(C(=O)NO)cc1 (stereo not shown) [Compound I-41, 4-[1-({[1-(4-chlorophenyl)cyclopropyl]carbonyl}amino)-2,2-dimethylpropyl]-N-hydroxybenzamide]"

# Same assay, conditions: bin: greater than 1 μM
row,IC50,Compound
1,> 1000 nM,"CC(C)C(NC(=O)c1cc2ccccc2s1)c1cccc(C(=O)NO)c1 (stereo not shown) [Compound I-390, N-(1-{3-[(hydroxyamino)carbonyl]phenyl}-2-methylpropyl)-1-benzothiophene-2-carboxamide]"
2,> 1000 nM,"Cn1c(C(=O)N[C@@H](c2ccc(C(=O)NO)cc2)C(F)(F)F)cc2oc(-c3ccccc3)cc21 [Compound I-231, 4-methyl-2-phenyl-N-((1S)-2,2,2-trifluoro-1-{4-[(hydroxyamino)carbonyl]phenyl}ethyl)-4H-furo[3,2-b]pyrrole-5-carboxamide]"
3,> 1000 nM,"CC(C)(C)C(NC(=O)C1CCCCC1)c1ccc(C(=O)NO)cc1 (stereo not shown) [Compound I-265, 4-{1-[(cyclohexylcarbonyl)amino]-2,2-dimethylpropyl}-N-hydroxybenzamide]"
4,> 1000 nM,"CC(C)C(NC(=O)Cc1cc(C(F)(F)F)cc(C(F)(F)F)c1)c1ccc(C(=O)NO)cc1 (stereo not shown) [Compound I-250, 4-[1-({[3,5-bis(trifluoromethyl)phenyl]acetyl}amino)-2-methylpropyl]-N-hydroxybenzamide]"
5,> 1000 nM,"CC(C)C(NC(=O)C(c1ccccc1)C(C)C)c1ccc(C(=O)NO)cc1 (stereo not shown) [Compound I-289, N-hydroxy-4-{2-methyl-1-[(3-methyl-2-phenylbutanoyl)amino]propyl}benzamide]"
6,> 1000 nM,"O=C(NO)c1ccc([C@@H](NC(=O)C23CC4CC(CC(C4)C2)C3)C2CC2)cc1 [Compound I-322, N-((S)-cyclopropyl{4-[(hydroxyamino)carbonyl]phenyl}methyl)adamantane-1-carboxamide]"
7,> 1000 nM,"Cc1noc(C)c1C(=O)NC(c1ccc(C(=O)NO)cc1)C(C)(C)C (stereo not shown) [Compound I-200, N-(1-{4-[(hydroxyamino)carbonyl]phenyl}-2,2-dimethylpropyl)-3,5-dimethylisoxazole-4-carboxamide]"
8,> 1000 nM,"COc1ccc(CC(=O)NC(C)c2ccc(C(=O)NO)cc2)cc1 (stereo not shown) [Compound I-159, N-hydroxy-4-(1-{[(4-methoxyphenyl)acetyl]amino}ethyl)benzamide]"
9,> 1000 nM,"COc1cc(C(=O)NO)ccc1C(C)NC(=O)c1cccn1C (stereo not shown) [Compound I-481, N-(1-{4-[(hydroxyamino)carbonyl]-2-methoxyphenyl}ethyl)-1-methyl-1H-pyrrole-2-carboxamide]"

# Same assay, conditions: purified human HDAC6, substrate Ac-Arg-Gly-Lys(Ac)-AMC, 1 hour at 30° C.; reported as bins
row,IC50,Compound
1,< 100 nM,"Cc1nc2cc(C(=O)NC(C)c3ccc(C(=O)NO)cc3)ccc2s1 (stereo not shown) [Compound I-230, N-(1-{4-[(hydroxyamino)carbonyl]phenyl}ethyl)-2-methyl-1,3-benzothiazole-5-carboxamide]"
2,< 100 nM,"CC(NC(=O)C(C)(C)c1ccc(Cl)cc1)c1ccc(C(=O)NO)cc1 (stereo not shown) [Compound I-378, 4-(1-{[2-(4-chlorophenyl)-2-methylpropanoyl]amino}ethyl)-N-hydroxybenzamide]"
3,< 100 nM,"CC(NC(=O)Nc1ccc2c(c1)OCO2)c1ccc(C(=O)NO)cc1 (stereo not shown) [Compound I-71, 4-(1-{[(1,3-benzodioxol-5-ylamino)carbonyl]amino}ethyl)-N-hydroxybenzamide]"
4,< 100 nM,"Cc1cc(C(=O)NC(C)c2ccc(C(=O)NO)cc2)n(C)n1 (stereo not shown) [Compound I-288, N-(1-{4-[(hydroxyamino)carbonyl]phenyl}ethyl)-1,3-dimethyl-1H-pyrazole-5-carboxamide]"
5,< 100 nM,"COc1ccc(C(=O)N[C@@H](c2ccc(C(=O)NO)cc2)C(F)(F)F)cc1 [Compound I-122, 4-methoxy-N-((1S)-2,2,2-trifluoro-1-{4-[(hydroxyamino)carbonyl]phenyl}ethyl)benzamide]"
6,< 100 nM,"CC(C)C(NC(=O)c1cccs1)c1ccc(C(=O)NO)cc1 (stereo not shown) [Compound I-112, N-(1-{4-[(hydroxyamino)carbonyl]phenyl}-2-methylpropyl)thiophene-2-carboxamide]"
7,< 100 nM,"C[C@@H](NC(=O)c1cc2ccccc2s1)c1cccc(C(=O)NO)c1 [Compound I-321, N-((1R)-1-{3-[(hydroxyamino)carbonyl]phenyl}ethyl)-1-benzothiophene-2-carboxamide]"
8,< 100 nM,"O=C(NO)c1ccc([C@H](NC(=O)c2cc3ccccc3o2)C(F)(F)F)cc1 [Compound I-400, N-((1S)-2,2,2-trifluoro-1-{4-[(hydroxyamino)carbonyl]phenyl}ethyl)-1-benzofuran-2-carboxamide]"
9,100 to 500 nM,"Cc1ccc2[nH]c(C(=O)NC(C)c3cccc(C(=O)NO)c3)cc2c1 (stereo not shown) [Compound I-342, N-(1-{3-[(hydroxyamino)carbonyl]phenyl}ethyl)-5-methyl-1H-indole-2-carboxamide]"
10,< 100 nM,"CC(C)(C)C(NC(=O)c1cc2ccccc2[nH]1)c1ccc(C(=O)NO)cc1 (stereo not shown) [Compound I-127, N-(1-{4-[(hydroxyamino)carbonyl]phenyl}-2,2-dimethylpropyl)-1H-indole-2-carboxamide]"
11,100 to 500 nM,"CC(NC(=O)c1ccc(-c2ccccc2)cc1)c1cccc(C(=O)NO)c1 (stereo not shown) [Compound I-142, N-(1-{3-[(hydroxyamino)carbonyl]phenyl}ethyl)biphenyl-4-carboxamide]"
12,< 100 nM,"COc1ccc(C)cc1NC(=O)NC(C)c1ccc(C(=O)NO)cc1 (stereo not shown) [Compound I-253, N-hydroxy-4-[1-({[(2-methoxy-5-methylphenyl)amino]carbonyl}amino)ethyl]benzamide]"
13,< 100 nM,"C[C@@H](NC(=O)c1cc2ccccc2o1)c1ccc(C(=O)NO)cc1 [Compound I-317, N-((1R)-1-{4-[(hydroxyamino)carbonyl]phenyl}ethyl)-1-benzofuran-2-carboxamide]"
14,100 to 500 nM,"COc1ccc(C(=O)NC(C)c2cccc(C(=O)NO)c2)cc1 (stereo not shown) [Compound I-202, N-hydroxy-3-{1-[(4-methoxybenzoyl)amino]ethyl}benzamide]"
15,< 100 nM,"CCC[C@@H](NC(=O)c1cc2oc(-c3ccccc3)cc2n1C)c1ccc(C(=O)NO)cc1 [Compound I-222, N-((1R)-1-{4-[(hydroxyamino)carbonyl]phenyl}butyl)-4-methyl-2-phenyl-4H-furo[3,2-b]pyrrole-5-carboxamide]"
16,100 to 500 nM,"CC(C)(C)C(NC(=O)c1csc2ccccc12)c1ccc(C(=O)NO)cc1 (stereo not shown) [Compound I-158, N-(1-{4-[(hydroxyamino)carbonyl]phenyl}-2,2-dimethylpropyl)-1-benzothiophene-3-carboxamide]"
17,100 to 500 nM,"Cc1cc(C(=O)NC(c2ccc(C(=O)NO)cc2)C(C)C)c(C)o1 (stereo not shown) [Compound I-252, N-(1-{4-[(hydroxyamino)carbonyl]phenyl}-2-methylpropyl)-2,5-dimethyl-3-furamide]"
18,< 100 nM,"CCC[C@@H](NC(=O)c1ccc(-c2ccccc2)cc1)c1ccc(C(=O)NO)cc1 [Compound I-274, N-((1R)-1-{4-[(hydroxyamino)carbonyl]phenyl}butyl)biphenyl-4-carboxamide]"
19,< 100 nM,"CC(C)[C@@H](NC(=O)N[C@H](C)c1ccccc1)c1ccc(C(=O)NO)cc1 [Compound I-514, N-hydroxy-4-[(1R)-2-methyl-1-({[(1R)-1-phenylethyl]carbamoyl}amino)propyl]benzamide]"
20,< 100 nM,"CC(NC(=O)C(C)(C)C)c1ccc(C(=O)NO)cc1 (stereo not shown) [Compound I-59, 4-{1-[(2,2-dimethylpropanoyl)amino]ethyl}-N-hydroxybenzamide]"
